Assay results as given in patent US20160166572A1, “BENEFICIAL EFFECTS OF Lp-PLA2 INHIBITORS IN TREATMENT OF DIABETIC RETINOPATHY AND AGE-RELATED MACULAR DEGENERATION” (Rowan University, priority 2014, published 2016).

How the values were obtained:
GFAP = GFAP expression in retina (immunofluorescence), DMHC pigs; format: in vivo, pig; conditions: Darapladib 10 mg/kg/d orally, 24 weeks
Protocol: Briefly, after induction of diabetes by a single injection of Streptozotocin, animals were fed a high cholesterol diet. After a month of DMHC induction and acclimation, animals were randomly segregated to untreated DMHC and Darapladib-treated DMHC groups. Darapladib-treated pigs received 10 mg/kg/d of Darapladib orally. Three of the pigs were spared from DMHC induction and served as age-matched, non-DMHC normal controls. Twenty four weeks after acclimation, animals were euthanized and their brains and eyes were immediately removed. Brains were divided anteroposteriorly into anterior, middle and posterior regions. For each of these brain regions, 2-3 tissue blocks were generated for routine tissue fixation (10% formalin) or freezing and histological processing. […] Cells positive for GFAP were counted throughout the whole thickness of the retina, and then quantified using ImagePro7.0 (Media Cybernetics, Silver Spring, Md.). Briefly, a 300×300 pixel square area was randomly made in each retinal section in three contiguous locations across the retina and the positive GFAP area was determined per total area using a fixed threshold. […] Cell number was determined by counting the DAPI-positive nuclei in a fixed area. […] GFAP-positive fluorescence extended from inner to outer limiting membranes in the DMHC group, confirming that GFAP was predominantly being expressed by Müller cells (FIGS. 5A-E). […]

occludin = test: Occludin gene expression in cerebral cortex (RT-PCR, beta-actin reference), DMHC pigs; format: in vivo, pig; conditions: Darapladib 10 mg/kg/d orally, 24 weeks, rank among treatment groups, FIG. 8B
Protocol: Briefly, after induction of diabetes by a single injection of Streptozotocin, animals were fed a high cholesterol diet. After a month of DMHC induction and acclimation, animals were randomly segregated to untreated DMHC and Darapladib-treated DMHC groups. Darapladib-treated pigs received 10 mg/kg/d of Darapladib orally. Three of the pigs were spared from DMHC induction and served as age-matched, non-DMHC normal controls. Twenty four weeks after acclimation, animals were euthanized and their brains and eyes were immediately removed. Brains were divided anteroposteriorly into anterior, middle and posterior regions. […]
Relative quantification of claudin5 and occludin gene expression was carried out using the reporter dye SYBR green and Applied Biosystems 7500 real time polymerase chain reaction (RT-PCR) system. […] Relative quantification of the claudin5 and occludin gene expression was conducted using beta actin (β-actin), a house keeping gene, as a standard. The amplification profiles of all samples were analyzed using Applied Biosystems software. […]
Changes in claudin 5 and occludin gene expression in response to DMHC and Darapladib treatment were assessed in the middle brain region only of the pig cerebral cortex by real-time polymerase chain reaction (RT-PCR) using beta-actin as a reference (FIG. 8).

CCN(CC)CCN(Cc1ccc(-c2ccc(C(F)(F)F)cc2)cc1)C(=O)Cn1c(SCc2ccc(F)cc2)nc(=O)c2c1CCC2 [Darapladib]
intensity of GFAP immunostaining (GFAP expression) in retina (GFAP; FIG. 5D): dramatically lower GFAP expression in the retinas of DMHC pigs, it was still significantly higher than in controls
GFAP immunoreactivity, distribution in retina (GFAP; compared to DMHC only, FIGS. 5A-C): reduced and confined to the GCL
occludin gene expression, middle brain region of cerebral cortex (occludin): highest claudin5 and occludin levels
